Read-outs that look alike come from different tables or passages of the source.
Biological target: rat MCH-1 (Rattus norvegicus, UniProt P97639)
Assay: Radioligand binding assay at cloned rat MCH1 receptor ([3H] Compound A)
Parameters: host or cells: Peak rapid 293 (Peakr293) cells, transient calcium phosphate transfection, membranes
Settings: cloned rat MCH1 receptor, 0.08 nM [3H] Compound A, read-out: Ki (nM) rMCH1

rat MCH-1, sequence (P97639 whole entry): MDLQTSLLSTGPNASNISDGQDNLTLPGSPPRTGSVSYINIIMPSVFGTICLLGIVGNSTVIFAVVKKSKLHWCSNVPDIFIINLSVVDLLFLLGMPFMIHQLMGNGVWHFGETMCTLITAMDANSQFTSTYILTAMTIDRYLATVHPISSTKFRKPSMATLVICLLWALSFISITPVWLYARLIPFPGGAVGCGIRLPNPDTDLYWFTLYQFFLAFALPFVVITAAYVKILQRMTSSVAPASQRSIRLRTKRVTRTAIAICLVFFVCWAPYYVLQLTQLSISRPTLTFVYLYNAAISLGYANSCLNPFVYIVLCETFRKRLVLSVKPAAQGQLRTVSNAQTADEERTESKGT

Ki (membranes from Peakr293 cells) | Ki (Peakr293 cell membranes) | SMILES
84 nM | – | CC(C)C(=O)Nc1cccc(C2CCN(CCCOc3ccccc3Cl)CC2)c1 [Example 348]
30.8 nM | – | Cc1ccc(Oc2cccc(CN3CCC(c4cccc(NC(=O)C(C)C)c4)CC3)c2)cc1 [Example 208]
14.1 nM | – | Cc1ccccc1OC(CCN1CCC(c2cccc(NC(=O)C(C)C)c2)CC1)c1ccc(Br)cc1 (stereo not drawn) [Example 133]
– | 13.4 nM | COc1ccc(OC(CCCCN2CCC(c3cccc(NC(=O)C(C)C)c3)CC2)c2ccc(Cl)cc2)cc1 (stereo not drawn) [Example 925]
– | 86.4 nM | CC(C)C(=O)Nc1cccc(C2CCN(CCCSc3ccccc3)CC2)c1 [Example 581]
– | 89.2 nM | CC(C)C(=O)Nc1cccc(C2CCN(CCCc3ccccc3)CC2)c1 [Example 804]
888 nM | – | CC(C)C(=O)Nc1cccc(C2CCN(C[C@@H](Oc3cccc(Cl)c3)c3ccccc3)CC2)c1 [Example 335]
– | 20.5 nM | Cc1cccc2c(CCCN3CCC(c4cccc(NC(=O)C(C)C)c4)CC3)c[nH]c12 [Example 417]
– | 15.9 nM | COc1ccc2[nH]c(-c3ccc(Br)cc3)c(CCCN3CCC(c4cccc(NC(=O)C(C)C)c4)CC3)c2c1 [Example 761]
3.7 nM | – | CC(C)C(=O)Nc1cccc(C2CCN(CCC(Oc3ccc(Br)cc3)c3ccc(Cl)cc3)CC2)c1 (stereo not drawn) [Example 171]
97.4 nM | – | CCSc1ncccc1C(=O)N[C@@H](CCN1CCC(c2cccc(NC(=O)C(C)C)c2)CC1)c1ccccc1 [Example 307]
– | 14 nM | CC(C)C(=O)Nc1cccc(C2CCN(CCCCC(Oc3ccc(Br)cc3)c3ccc(F)cc3)CC2)c1 (stereo not drawn) [Example 919]
– | 1.3 nM | CC(C)C(=O)Nc1cccc(C2CCN(CCCc3c(-c4ccc(F)cc4)[nH]c4ccccc34)CC2)c1 [Example 717]
– | 647 nM | Cc1[nH]c2ccccc2c1CN1CCC(c2cccc(NC(=O)C(C)C)c2)CC1 [Example 430]
– | 10.2 nM | Cc1ccccc1-n1ccc2cc(CN3CCC(c4cccc(NC(=O)C(C)C)c4)CC3)ccc21 [Example 847]
163 nM | – | CC(C)C(=O)Nc1cccc(C2CCN(C[C@@H](C)COc3cccc(Br)c3)CC2)c1 [Example 371]
– | 18 nM | Cc1cccc2c(CCCN3CCC(c4cccc(NC(=O)C(C)C)c4)CC3)c(-c3ccccc3Br)[nH]c12 [Example 783]

Ki (membranes from Peakr293 cells) | Ki (Peakr293 cell membranes) | SMILES
– | 6.4 nM | CCOc1ccccc1OC(CCCCCN1CCC(c2cccc(NC(=O)C(C)C)c2)CC1)c1ccccc1F (stereo not drawn) [Example 895]
– | 1.9 nM | Cc1ccc2[nH]c(-c3cccc(Br)c3)c(CCCN3CCC(c4cccc(NC(=O)C(C)C)c4)CC3)c2c1 [Example 763]
– | 14.9 nM | Cc1cccc2c(CCCN3CCC(c4cccc(NC(=O)C(C)C)c4)CC3)c(-c3ccc(Cl)cc3)[nH]c12 [Example 719]
– | 1.7 nM | CC(C)C(=O)Nc1cccc(C2CCN(CCCc3c(-c4cccc(Cl)c4)[nH]c4ccccc34)CC2)c1 [Example 729]
– | 44.6 nM | Cc1noc(C)c1S(=O)(=O)N[C@@H](CCN1CCC(c2cccc(NC(=O)C(C)C)c2)CC1)c1ccccc1 [Example 602]
– | 14.2 nM | CC(C)C(=O)Nc1cccc(C2CCN(CCCCCC(Oc3ccc(Cl)cc3)c3ccccc3)CC2)c1 (stereo not drawn) [Example 904]
– | 76.8 nM | CC(C)C(=O)Nc1cccc(C2CCN(CCCc3c[nH]c4c3ccc3ccccc34)CC2)c1 [Example 413]
15.6 nM | – | CC(=O)c1cccc(O[C@@H](CCN2CCC(c3cc(NC(=O)C(C)C)ccc3C)CC2)c2ccccc2)c1 [Example 187]
61.8 nM | – | CC(C)C(=O)Nc1cccc(C2CCN(CCCOc3cccc(Br)c3)CC2)c1 [Example 351]
– | 7.6 nM | CC(C)C(=O)Nc1cccc(C2CCN(CCCc3c(-c4ccccc4Br)[nH]c4c3ccc3ccccc34)CC2)c1 [Example 781]
15.4 nM | – | CC(C)C(=O)Nc1cccc(C2CCN(Cc3ccc(Oc4ccccc4)cc3)CC2)c1 [Example 259]
– | 42.7 nM | CC(C)C(=O)Nc1cccc(C2CCN(Cc3cn(-c4ccccc4)c4c(Cl)cccc34)CC2)c1 [Example 512]
– | 6.9 nM | CC(C)C(=O)Nc1cccc(C2CCN(CCCCC(Oc3ccc(Cl)cc3)c3ccc(Cl)cc3)CC2)c1 (stereo not drawn) [Example 920]
112 nM | – | COc1ccc(C(CCN2CCC(c3cccc(NC(=O)C(C)C)c3)CC2)Oc2ccccc2)cc1 (stereo not drawn) [Example 173, N-(3-{1-[3-(4- METHOXYPHENYL)-3-PHENOXYPROPYL]-4-PIPERIDINYL}PHENYL)-2-METHYLPROPANAMIDE]
– | 23 nM | CC(=O)c1ccc(OC(CCCCCN2CCC(c3cccc(NC(=O)C(C)C)c3)CC2)c2ccccc2F)cc1 (stereo not drawn) [Example 893]
– | 28.4 nM | CC(C)C(=O)Nc1cccc(C2CCN(CCCCC(Oc3ccc(Cl)cc3)c3ccc(F)cc3)CC2)c1 (stereo not drawn) [Example 937]

Second part, the compound before the results:

SMILES | Ki (membranes from Peakr293 cells) | Ki (Peakr293 cell membranes)
CC(C)C(=O)Nc1cccc(C2CCN(Cc3c[nH]nc3-c3ccc(C(F)(F)F)cc3)CC2)c1 [Example 216] | 818 nM | –
CCc1ccc(-c2ccc3c(CN4CCC(c5cccc(NC(=O)C(C)C)c5)CC4)c[nH]c3c2)cc1 [Example 523] | – | 54.8 nM
CC(C)C(=O)Nc1cccc(C2CCN(CCCC3OCC(C)(C)CO3)CC2)c1 [Example 374] | 96.8 nM | –
COc1ccc2[nH]c(-c3ccc(C(F)(F)F)cc3)c(CCCN3CCC(c4cccc(NC(=O)C(C)C)c4)CC3)c2c1 [Example 689] | – | 11.3 nM
O=C(CCCCN1CCC(c2cccc(NC(=O)C3CC3)c2)CC1)c1ccccc1F [Example 563] | – | 50.2 nM
CC(C)C(=O)Nc1cccc(C2CCN(Cc3c[nH]c4c(-c5cccc([N+](=O)[O-])c5)cccc34)CC2)c1 [Example 521] | – | 27 nM
CC(C)C(=O)Nc1cccc(C2CCN(Cc3ccc(-c4csnn4)cc3)CC2)c1 [Example 263] | 156 nM | –
CC(C)C(=O)Nc1cccc(C2CCN(CCCc3c(-c4ccccc4F)[nH]c4ccc(OC(F)(F)F)cc34)CC2)c1 [Example 695] | – | 2.1 nM
COc1cccc2c(CCN3CCC(c4cccc(NC(=O)C(C)C)c4)CC3)c[nH]c12 [Example 419] | – | 83.9 nM
CCC(=O)Nc1cccc(C2CCN(CCCCC(=O)c3ccc(C(F)(F)F)cc3)CC2)c1 [Example 550] | – | 60.9 nM
CCC(=O)Nc1cccc(C2CCN(CCCCC(=O)c3cccc([N+](=O)[O-])c3)CC2)c1 [Example 552] | – | 24.7 nM
Cc1onc(-c2ccccc2)c1C(=O)OCCCCN1CCC(c2cccc(NC(=O)C(C)C)c2)CC1 [Example 296, 4-{4-[3-(ISOBUTYRYLAMINO)PHENYL]-1-PIPERIDINYL}BUTYL 5-METHYL-3-PHENYL-4-ISOXAZOLECARBOXYLATE] | 20 nM | –
CC(C)C(=O)Nc1cccc(C2CCN(C[C@H](C)COc3cc(F)c(F)cc3F)CC2)c1 [Example 357] | 115 nM | –
CC(C)C(=O)Nc1cccc(C2CCN(CCCc3c(-c4ccccc4I)[nH]c4c3ccc3ccccc34)CC2)c1 [Example 791] | – | 12.7 nM
CC(C)C(=O)Nc1cccc(C2CCN(CCCCCCNC(=O)c3scc(S(=O)(=O)C(C)C)c3Cl)CC2)c1 [Example 630] | – | 202 nM
CC(C)C(=O)Nc1cccc(C2CCN(Cc3ccc(N4CCOCC4)c([N+](=O)[O-])c3)CC2)c1 [Example 219] | 68.8 nM | –
CCC(=O)Nc1ccc(C2CCN(CCCCCCn3ccc4ccccc43)CC2)cc1 [Example 828] | – | 516 nM
CC(C)C(=O)Nc1cccc(C2CCN(CCCNC(=O)c3csc4ccccc34)CC2)c1 [Example 330] | 215 nM | –
Cc1onc(-c2ccccc2Cl)c1C(=O)OCCCN1CCC(c2cccc(NC(=O)C(C)C)c2)CC1 [Example 289, 3-{4-[3-(ISOBUTYRYLAMINO)PHENYL]-1-PIPERIDINYL}PROPYL 3-(2-CHLOROPHENYL)-5-METHYL-4-ISOXAZOLECARBOXYLATE] | 31.8 nM | –
CC(C)C(=O)Nc1cccc(C2CCN(Cc3ccc4c(ccn4-c4ccc(C(F)(F)F)cc4)c3)CC2)c1 [Example 845] | – | 43.1 nM

SMILES | Ki (membranes from Peakr293 cells) | Ki (Peakr293 cell membranes)
CC(C)C(=O)Nc1cccc(C2CCN(Cc3c[nH]c4cc(OCc5ccccc5)ccc34)CC2)c1 [Example 496] | – | 288 nM
CC(C)C(=O)Nc1cccc(C2CCN(CCCC(=O)c3ccc(F)cc3)CC2)c1 [Example 941] | – | 15.2 nM
O=C(CCCN1CCC(c2cccc(NC(=O)C3CC3)c2)CC1)c1ccc(F)cc1 [Example 548] | – | 126 nM
O=C(CCCCN1CCC(c2cccc(NC(=O)C3CC3)c2)CC1)c1ccccc1Cl [Example 567] | – | 92.2 nM
CC(C)C(=O)Nc1cccc(C2CCN(CCCCCCNC(=O)Nc3ccc(Cl)cc3Cl)CC2)c1 [Example 632] | – | 76.6 nM
COc1ccc(S(=O)(=O)NCCCN2CCC(c3cccc(NC(=O)C(C)C)c3)CC2)cc1OC [Example 637] | – | 106 nM
CC(C)C(=O)Nc1cccc(C2CCN(Cc3cn(-c4ccc(F)cc4)c4cc(Cl)ccc34)CC2)c1 [Example 471] | – | 4.3 nM
Cc1cc(CN2CCC(c3cccc(NC(=O)C(C)C)c3)CC2)cc2c3ccccc3n(C)c12 [Example 822] | – | 1 nM
CCC(=O)Nc1cccc(C2CCN(CCCCSc3ccccc3)CC2)c1 [Example 583] | – | 55.5 nM
CC(C)C(=O)Nc1cccc(C2CCN(Cc3ccc4c(ccn4-c4cccc(C(F)(F)F)c4)c3)CC2)c1 [Example 850] | – | 9.5 nM
CC(C)C(=O)Nc1cccc(C2CCN(Cc3cccc(Oc4ccc(C(C)(C)C)cc4)c3)CC2)c1 [Example 213] | 519 nM | –
CCCC(=O)Nc1ccc(C2CCN(CCCCCn3ccc4ccccc43)CC2)cc1 [Example 826] | – | 786 nM
CC(C)C(=O)Nc1cccc(C2CCN(CCCc3c(-c4ccc(F)cc4)n(-c4ccccc4)c4ccccc34)CC2)c1 [Example 696] | – | 48.3 nM
CCC(=O)Nc1ccc(C2CCN(CCC(c3ccccc3)c3ccccc3)CC2)cc1 [Example 799] | – | 371 nM
CC(C)C(=O)Nc1cccc(C2CCN(CCCc3c(-c4ccccc4Br)n(-c4ccccc4)c4ccccc34)CC2)c1 [Example 784] | – | 121 nM
CC(C)C(=O)Nc1cccc(C2CCN(Cc3ccc4c(c3)OCCO4)CC2)c1 [Example 223] | 318 nM | –
CCC(=O)Nc1cccc(C2CCN(CCCC(=O)c3ccc(C(C)(C)C)cc3)CC2)c1 [Example 534] | – | 155 nM
CC(C)C(=O)Nc1cccc(C2CCN(Cc3ccc4c(ccn4-c4ccccc4F)c3)CC2)c1 [Example 852] | – | 14.5 nM
CCC(=O)Nc1cccc(C2CCN(CCCC(=O)c3ccc(Br)cc3)CC2)c1 [Example 533] | – | 10.6 nM
